Measurements: patent US20230017045A1, “PYRIDINE AND PYRIMIDINE CARBOXYLATE HERBICIDES AND METHODS OF USE THEREOF” (Dow AgroSciences LLC, priority 2017, published 2023)

Test system: test plant species
Assay: Post-emergent herbicidal activity test (greenhouse, foliar spray, visual growth reduction)
Type: in vivo
Conditions: post-emergence, 336 h, ALOMY: blackgrass (Alopecurus myosuroides), 140 g ai/ha, 14 days after application, read-out: Visual Growth Reduction (%) 14 Days After Application, ALOMY
How it was run: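 Greenhouse plants at first–second true leaf stage sprayed overhead at 187 L/ha with compound in acetone/water/isopropanol/DMSO/crop oil/X-77 carrier; controls received solvent blank. Injury rated visually after 14 d on a 0–100% scale versus untreated and control plants, converted to growth reduction.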

| SMILES | pest or weed control at 140 g/ha [%] |
| --- | --- |
| COC(=O)c1nc(-c2ccc(Br)cc2Cl)ccc1Cl [F27, Methyl 6-(4-bromo-2-chlorophenyl)-3-chloropicolinate] | 0 to 29 |
| COC(=O)c1nc(-c2c(Cl)cc(C(F)(F)F)cc2S(C)(=O)=O)ccc1Cl [F138, methyl 3-chloro-6-(2-chloro-6-(methylsulfonyl)-4-(trifluoromethyl)phenyl)picolinate] | 0 to 29 |

Same assay, conditions: post-emergence, 336 h, AMARE: redroot pigweed (Amaranthus retroflexus), 140 g ai/ha, 14 days after application, read-out: Visual Growth Reduction (%) 14 Days After Application, AMARE

| SMILES | pest or weed control at 140 g/ha [%] |
| --- | --- |
| COC(=O)c1nc(-c2ccc(Br)cc2Cl)ccc1Cl [F27, Methyl 6-(4-bromo-2-chlorophenyl)-3-chloropicolinate] | 60 to 74 |
| COC(=O)c1nc(-c2c(Cl)cc(C(F)(F)F)cc2S(C)(=O)=O)ccc1Cl [F138, methyl 3-chloro-6-(2-chloro-6-(methylsulfonyl)-4-(trifluoromethyl)phenyl)picolinate] | 85 to 94 |

Same assay, conditions: post-emergence, 336 h, AVEFA: wild oat (Avena fatua), 140 g ai/ha, 14 days after application, read-out: Visual Growth Reduction (%) 14 Days After Application, AVEFA

| SMILES | pest or weed control at 140 g/ha [%] |
| --- | --- |
| COC(=O)c1nc(-c2ccc(Br)cc2Cl)ccc1Cl [F27, Methyl 6-(4-bromo-2-chlorophenyl)-3-chloropicolinate] | 0 to 29 |
| COC(=O)c1nc(-c2c(Cl)cc(C(F)(F)F)cc2S(C)(=O)=O)ccc1Cl [F138, methyl 3-chloro-6-(2-chloro-6-(methylsulfonyl)-4-(trifluoromethyl)phenyl)picolinate] | 0 to 29 |

Same assay, conditions: post-emergence, 336 h, CHEAL: lambsquarters (Chenopodium album), 140 g ai/ha, 14 days after application, read-out: Visual Growth Reduction (%) 14 Days After Application, CHEAL

| SMILES | pest or weed control at 140 g/ha [%] |
| --- | --- |
| COC(=O)c1nc(-c2ccc(Br)cc2Cl)ccc1Cl [F27, Methyl 6-(4-bromo-2-chlorophenyl)-3-chloropicolinate] | 45 to 59 |
| COC(=O)c1nc(-c2c(Cl)cc(C(F)(F)F)cc2S(C)(=O)=O)ccc1Cl [F138, methyl 3-chloro-6-(2-chloro-6-(methylsulfonyl)-4-(trifluoromethyl)phenyl)picolinate] | 60 to 74 |

Same assay, conditions: post-emergence, 336 h, CIRAR: canada thistle (Cirsium arvense), 140 g ai/ha, 14 days after application, read-out: Visual Growth Reduction (%) 14 Days After Application, CIRAR

| SMILES | pest or weed control at 140 g/ha [%] |
| --- | --- |
| COC(=O)c1nc(-c2ccc(Br)cc2Cl)ccc1Cl [F27, Methyl 6-(4-bromo-2-chlorophenyl)-3-chloropicolinate] | 75 to 84 |
| COC(=O)c1nc(-c2c(Cl)cc(C(F)(F)F)cc2S(C)(=O)=O)ccc1Cl [F138, methyl 3-chloro-6-(2-chloro-6-(methylsulfonyl)-4-(trifluoromethyl)phenyl)picolinate] | 60 to 74 |

Same assay, conditions: post-emergence, 336 h, CYPES: yellow nutsedge (Cyperus esculentus), 140 g ai/ha, 14 days after application, read-out: Visual Growth Reduction (%) 14 Days After Application, CYPES

| SMILES | pest or weed control at 140 g/ha [%] |
| --- | --- |
| COC(=O)c1nc(-c2ccc(Br)cc2Cl)ccc1Cl [F27, Methyl 6-(4-bromo-2-chlorophenyl)-3-chloropicolinate] | 0 to 29 |
| COC(=O)c1nc(-c2c(Cl)cc(C(F)(F)F)cc2S(C)(=O)=O)ccc1Cl [F138, methyl 3-chloro-6-(2-chloro-6-(methylsulfonyl)-4-(trifluoromethyl)phenyl)picolinate] | 0 to 29 |

Same assay, conditions: post-emergence, 336 h, DIGSA: crabgrass (Digitaria sanguinalis), 140 g ai/ha, 14 days after application, read-out: Visual Growth Reduction (%) 14 Days After Application, DIGSA

| SMILES | pest or weed control at 140 g/ha [%] |
| --- | --- |
| COC(=O)c1nc(-c2ccc(Br)cc2Cl)ccc1Cl [F27, Methyl 6-(4-bromo-2-chlorophenyl)-3-chloropicolinate] | 60 to 74 |
| COC(=O)c1nc(-c2c(Cl)cc(C(F)(F)F)cc2S(C)(=O)=O)ccc1Cl [F138, methyl 3-chloro-6-(2-chloro-6-(methylsulfonyl)-4-(trifluoromethyl)phenyl)picolinate] | 0 to 29 |

Same assay, conditions: post-emergence, 336 h, ECHCG: barnyardgrass (Echinochloa crus-galli), 140 g ai/ha, 14 days after application, read-out: Visual Growth Reduction (%) 14 Days After Application, ECHCG

| SMILES | pest or weed control at 140 g/ha [%] |
| --- | --- |
| COC(=O)c1nc(-c2ccc(Br)cc2Cl)ccc1Cl [F27, Methyl 6-(4-bromo-2-chlorophenyl)-3-chloropicolinate] | 0 to 29 |
| COC(=O)c1nc(-c2c(Cl)cc(C(F)(F)F)cc2S(C)(=O)=O)ccc1Cl [F138, methyl 3-chloro-6-(2-chloro-6-(methylsulfonyl)-4-(trifluoromethyl)phenyl)picolinate] | 0 to 29 |

Same assay, conditions: post-emergence, 336 h, IPOHE: ivy-leaf morning glory (Ipomoea hederacea), 140 g ai/ha, 14 days after application, read-out: Visual Growth Reduction (%) 14 Days After Application, IPOHE

| SMILES | pest or weed control at 140 g/ha [%] |
| --- | --- |
| COC(=O)c1nc(-c2ccc(Br)cc2Cl)ccc1Cl [F27, Methyl 6-(4-bromo-2-chlorophenyl)-3-chloropicolinate] | 85 to 94 |
| COC(=O)c1nc(-c2c(Cl)cc(C(F)(F)F)cc2S(C)(=O)=O)ccc1Cl [F138, methyl 3-chloro-6-(2-chloro-6-(methylsulfonyl)-4-(trifluoromethyl)phenyl)picolinate] | 75 to 84 |

Same assay, conditions: post-emergence, 336 h, KCHSC: kochia (Bassia scoparia), 140 g ai/ha, 14 days after application, read-out: Visual Growth Reduction (%) 14 Days After Application, KCHSC

| SMILES | pest or weed control at 140 g/ha [%] |
| --- | --- |
| COC(=O)c1nc(-c2ccc(Br)cc2Cl)ccc1Cl [F27, Methyl 6-(4-bromo-2-chlorophenyl)-3-chloropicolinate] | 30 to 44 |
| COC(=O)c1nc(-c2c(Cl)cc(C(F)(F)F)cc2S(C)(=O)=O)ccc1Cl [F138, methyl 3-chloro-6-(2-chloro-6-(methylsulfonyl)-4-(trifluoromethyl)phenyl)picolinate] | 60 to 74 |

Same assay, conditions: post-emergence, 336 h, ORYSA: rice (Oryza sativa), 140 g ai/ha, 14 days after application, read-out: Visual Growth Reduction (%) 14 Days After Application, ORYSA

| SMILES | pest or weed control at 140 g/ha [%] |
| --- | --- |
| COC(=O)c1nc(-c2ccc(Br)cc2Cl)ccc1Cl [F27, Methyl 6-(4-bromo-2-chlorophenyl)-3-chloropicolinate] | 0 to 29 |
| COC(=O)c1nc(-c2c(Cl)cc(C(F)(F)F)cc2S(C)(=O)=O)ccc1Cl [F138, methyl 3-chloro-6-(2-chloro-6-(methylsulfonyl)-4-(trifluoromethyl)phenyl)picolinate] | 0 to 29 |

Same assay, conditions: post-emergence, 336 h, SETFA: giant foxtail (Setaria faberi), 140 g ai/ha, 14 days after application, read-out: Visual Growth Reduction (%) 14 Days After Application, SETFA

| SMILES | pest or weed control at 140 g/ha [%] |
| --- | --- |
| COC(=O)c1nc(-c2ccc(Br)cc2Cl)ccc1Cl [F27, Methyl 6-(4-bromo-2-chlorophenyl)-3-chloropicolinate] | 0 to 29 |
| COC(=O)c1nc(-c2c(Cl)cc(C(F)(F)F)cc2S(C)(=O)=O)ccc1Cl [F138, methyl 3-chloro-6-(2-chloro-6-(methylsulfonyl)-4-(trifluoromethyl)phenyl)picolinate] | 0 to 29 |

Same assay, conditions: post-emergence, 336 h, SORVU: grain sorghum (Sorghum vulgare), 140 g ai/ha, 14 days after application, read-out: Visual Growth Reduction (%) 14 Days After Application, SORVU

| SMILES | pest or weed control at 140 g/ha [%] |
| --- | --- |
| COC(=O)c1nc(-c2ccc(Br)cc2Cl)ccc1Cl [F27, Methyl 6-(4-bromo-2-chlorophenyl)-3-chloropicolinate] | 60 to 74 |
| COC(=O)c1nc(-c2c(Cl)cc(C(F)(F)F)cc2S(C)(=O)=O)ccc1Cl [F138, methyl 3-chloro-6-(2-chloro-6-(methylsulfonyl)-4-(trifluoromethyl)phenyl)picolinate] | 0 to 29 |

Same assay, conditions: post-emergence, 336 h, STEME: common chickweed (Stellaria media), 140 g ai/ha, 14 days after application, read-out: Visual Growth Reduction (%) 14 Days After Application, STEME

| SMILES | pest or weed control at 140 g/ha [%] |
| --- | --- |
| COC(=O)c1nc(-c2ccc(Br)cc2Cl)ccc1Cl [F27, Methyl 6-(4-bromo-2-chlorophenyl)-3-chloropicolinate] | 0 to 29 |
| COC(=O)c1nc(-c2c(Cl)cc(C(F)(F)F)cc2S(C)(=O)=O)ccc1Cl [F138, methyl 3-chloro-6-(2-chloro-6-(methylsulfonyl)-4-(trifluoromethyl)phenyl)picolinate] | 0 to 29 |

Same assay, conditions: post-emergence, 336 h, TRZAS: wheat, spring (Triticum aestivum), 140 g ai/ha, 14 days after application, read-out: Visual Growth Reduction (%) 14 Days After Application, TRZAS

| SMILES | pest or weed control at 140 g/ha [%] |
| --- | --- |
| COC(=O)c1nc(-c2ccc(Br)cc2Cl)ccc1Cl [F27, Methyl 6-(4-bromo-2-chlorophenyl)-3-chloropicolinate] | 0 to 29 |
| COC(=O)c1nc(-c2c(Cl)cc(C(F)(F)F)cc2S(C)(=O)=O)ccc1Cl [F138, methyl 3-chloro-6-(2-chloro-6-(methylsulfonyl)-4-(trifluoromethyl)phenyl)picolinate] | 0 to 29 |
